In patent publication US10144709B2, “Piperidine compounds, pharmaceutical composition comprising the same and its use” (SK BIOPHARMACEUTICALS CO., LTD., priority 2008, dated 2018) one finds change in vivo data, which are given here for 28 molecules.

Where a name gives a salt, the structure may show the parent alone.

The subject of the test is ICR CD strain male mice. Put plainly: Gastric emptying enhancing activity (phenol red meal). In kind it is in vivo. The note with it: Mus musculus, ip, 0.25 h, 3.0 mg/kg i.p., gastric emptying at 15 min after test meal, increase vs vehicle. The method, then:
ICR CD strain male mice (body weight, 25˜30 g; 8 mice per one group) were fasted for 24 h but allowed free access to water until 3 hours before the test.
Compounds to be tested for promoting GI motility were injected intraperitoneally or given orally at 30 min or 60 min prior to phenol red meal administration. Fifteen (15) min after administration of a test meal (0.5% Phenol red in 1.5% methylcellulose solution), mice were sacrificed and the stomach (pylorus˜cardia) was removed and collected to vial. The stomach was homogenized with its contents in 0.1N NaOH and the mixture was centrifuged (700*g) for 20 min. 2.5 mL of the supernatant was added to 0.25 mL of trichloroacetic acid solution (20% w/v) to precipitate proteins. After centrifuging (2600*g) for 20 min, 0.5 mL of the supernatant was added to 0.25 mL of 1N NaOH. The mixture was homogenized and its absorbance (Abs) was read at 560 nm.
In each experiment, one group was sacrificed just after the administration of the test meal and was considered as a standard (0% emptying). The gastric emptying (GE) at the 15 min period was calculated according to the following formula. GE (%)=(1−Abstest/Absstandard)×100 Increase (%)=(GE %test−GE %vehicle)/GE %vehicle*100
With `COc1cc(N)c(Cl)cc1C(=O)NCC1CCN(CCC(O)c2ccc(Cl)cc2)CC1` (stereo not shown) [Example 38, 4-amino-5-chloro-N-[[1-[3-(4-chlorophenyl)-3-hydroxypropyl]piperidin-4-yl]methyl]-2-methoxybenzamide; hydrochloride], the change in vivo at 3 mg/kg is 49.1%.

As to `COc1cc(N)c(Cl)cc1C(=O)NCC1CCN(CC(COc2ccc(Cl)c(Cl)c2)NC(=O)O)CC1` (stereo not shown) [Example 99, [1-[4-[[(4-amino-5-chloro-2-methoxybenzoyl)amino]methyl]piperidin-1-yl]-3-(3,4-dichlorophenoxy)propan-2-yl]carbamate; hydrochloride], the change in vivo at 3 mg/kg is 47.5%. The result for `COc1cccc(C(CCN2CCC(CNC(=O)c3cc(Cl)c(N)cc3OC)CC2)NC(=O)O)c1` (stereo not shown) [Example 63, [3-[4-[[(4-amino-5-chloro-2-methoxybenzoyl)amino]methyl]piperidin-1-yl]-1-(3-methoxyphenyl)propyl]carbamate; hydrochloride] reads 24.4%; that for `COc1cc(N)c(Cl)cc1C(=O)NCC1CCN(CC(COc2ccc(C(F)(F)F)cc2)NC(=O)O)CC1` (stereo not shown) [Example 100, [1-[4-[[(4-amino-5-chloro-2-methoxybenzoyl)amino]methyl]piperidin-1-yl]-3-[4-(trifluoromethyl)phenoxy]propan-2-yl]carbamate; hydrochloride], 46.1%.

As for `COc1cc(N)c(Cl)cc1C(=O)NCC1CCN(CCC(NC(=O)O)c2ccc(Cl)cc2Cl)CC1` (stereo not shown) [Example 60, [3-[4-[[(4-amino-5-chloro-2-methoxybenzoyl)amino]methyl]piperidin-1-yl]-1-(2,4-dichlorophenyl)propyl]carbamate; hydrochloride], the change in vivo at 3 mg/kg came out at 14.2%. `COc1cc(N)c(Cl)cc1C(=O)NCC1CCN(CC(O)c2ccc(F)cc2)CC1` (stereo not shown) [Example 2, 4-amino-5-chloro-N-[[1-[2-(4-fluorophenyl)-2-hydroxyethyl]piperidin-4-yl]methyl]-2-methoxybenzamide; hydrochloride]: the change in vivo at 3 mg/kg is 42.6%.

As to `COc1cc(N)c(Cl)cc1C(=O)NCC1CCN(CC(NC(=O)O)c2ccc(OC(F)F)cc2)CC1` (stereo not shown) [Example 32, [2-[4-[[(4-amino-5-chloro-2-methoxybenzoyl)amino]methyl]piperidin-1-yl]-1-[4-(difluoromethoxy)phenyl]ethyl]carbamate; hydrochloride], the change in vivo at 3 mg/kg turned out to be 40%. To `Cn1c(=O)n(C(=O)NCC2CCN(CC(O)COc3ccccc3)CC2)c2ccccc21` (stereo not shown) [Example 111, N-[[1-(2-hydroxy-3-phenoxypropyl)piperidin-4-yl]methyl]-3-methyl-2-oxobenzimidazole-1-carboxamide; hydrochloride] belongs 37.2%; to `COc1cccc(C(O)CCN2CCC(CNC(=O)c3cc(Cl)c(N)cc3OC)CC2)c1` (stereo not shown) [Example 49, 4-amino-5-chloro-N-[[1-[3-(3-methoxyphenyl)-3-hydroxypropyl]piperidin-4-yl]methyl]-2-methoxybenzamide; hydrochloride], 17.8%; to `COc1cc(N)c(Cl)cc1C(=O)NCC1CCN(CCC(Cc2ccc(F)cc2)NC(=O)O)CC1` (stereo not shown) [Example 65, [4-[4-[[(4-amino-5-chloro-2-methoxybenzoyl)amino]methyl]piperidin-1-yl]-1-(4-fluorophenyl)butan-2-yl]carbamate; hydrochloride], 93.1%. The result for `COc1cc(N)c(Cl)cc1C(=O)NCC1CCN(CCC(O)c2ccccc2)CC1` (stereo not shown) [Example 36, 4-amino-5-chloro-N-[[1-(3-hydroxy-3-phenylpropyl)piperidin-4-yl]methyl]-2-methoxybenzamide; hydrochloride] reads 55.2%; that for `COc1cc(N)c(Cl)cc1C(=O)NCC1CCN(CC(O)c2ccccc2OC)CC1` (stereo not shown) [Example 8, 4-amino-5-chloro-N-[[1-[2-hydroxy-2-(2-methoxyphenyl)ethyl]piperidin-4-yl]methyl]-2-methoxybenzamide; hydrochloride], 51.6%; that for `COc1cc(N)c(Cl)cc1C(=O)NCC1CCN(CC(O)COc2ccc(F)cc2)CC1` (stereo not shown) [Example 72, 4-amino-5-chloro-N-[[1-[3-(4-fluorophenoxy)-2-hydroxypropyl]piperidin-4-yl]methyl]-2-methoxybenzamide; hydrochloride], 48.1%. The result for `COc1cc(N)c(Cl)cc1C(=O)NCC1CCN(CC(NC(=O)O)c2ccccc2Cl)CC1` (stereo not shown) [Example 29, [2-[4-[[(4-amino-5-chloro-2-methoxybenzoyl)amino]methyl]piperidin-1-yl]-1-(2-chlorophenyl)ethyl]carbamate; hydrochloride] reads 61.3%; that for `COc1ccc(OCC(O)CN2CCC(CNC(=O)c3cc(Cl)c(N)cc3OC)CC2)cc1` (stereo not shown) [Example 74, 4-amino-5-chloro-N-[[1-[2-hydroxy-3-(4-methoxyphenoxy)propyl]piperidin-4-yl]methyl]-2-methoxybenzamide; hydrochloride], 46.7%. In the case of `COc1cc(N)c(Cl)cc1C(=O)NCC1CCN(CCC(NC(=O)O)c2ccc(C(C)C)cc2)CC1` (stereo not shown) [Example 62, [3-[4-[[(4-amino-5-chloro-2-methoxybenzoyl)amino]methyl]piperidin-1-yl]-1-(4-isopropylphenyl)propyl]carbamate; hydrochloride], the change in vivo at 3 mg/kg is 17.9%.

As to `COc1cc(N)c(Cl)cc1C(=O)NCC1CCN(CC(O)c2ccc(C)cc2)CC1` (stereo not shown) [Example 3, 4-amino-5-chloro-N-[[1-[2-hydroxy-2-(4-methylphenyl)ethyl]piperidin-4-yl]methyl]-2-methoxybenzamide; hydrochloride], the change in vivo at 3 mg/kg worked out at 71.1%. `COc1cc(N)c(Cl)cc1C(=O)NCC1CCN(CCC(O)c2ccc(Cl)c(Cl)c2)CC1` (stereo not shown) [Example 47, 4-amino-5-chloro-N-[[1-[3-(3,4-dichlorophenyl)-3-hydroxypropyl]piperidin-4-yl]methyl]-2-methoxybenzamide; hydrochloride]: the change in vivo at 3 mg/kg is 25.9%. To `COc1cc(N)c(Cl)cc1C(=O)NCC1CCN(CCC(O)Cc2ccc(F)cc2)CC1` (stereo not shown) [Example 51, 4-amino-5-chloro-N-[[1-[4-(4-fluorophenyl)-3-hydroxybutyl]piperidin-4-yl]methyl]-2-methoxybenzamide; hydrochloride] belongs 122%; to `COc1cc(N)c(Cl)cc1C(=O)NCC1CCN(CCC(O)c2cccc(Cl)c2)CC1` (stereo not shown) [Example 42, 4-amino-5-chloro-N-[[1-[3-(3-chlorophenyl)-3-hydroxypropyl]piperidin-4-yl]methyl]-2-methoxybenzamide; hydrochloride], 42.7%. The result for `O=C(NCC1CCN(CCC(O)c2ccccc2)CC1)n1c(=O)n(C2CC2)c2ccccc21` (stereo not shown) [Example 135, 3-cyclopropyl-N-[[1-(3-hydroxy-3-phenylpropyl)piperidin-4-yl]methyl]-2-oxobenzimidazole-1-carboxamide; hydrochloride] reads 90.3%; that for `COc1cc(N)c(Cl)cc1C(=O)NCC1CCN(CC(O)COc2ccc(C(F)(F)F)cc2)CC1` (stereo not shown) [Example 83, 4-amino-5-chloro-N-[[1-[2-hydroxy-3-[4-(trifluoromethyl)phenoxy]propyl]piperidin-4-yl]methyl]-2-methoxybenzamide; hydrochloride], 42.5%.

Turning to `COc1ccc(OCC(CN2CCC(CNC(=O)n3c(=O)n(C(C)C)c4ccccc43)CC2)NC(=O)O)cc1` (stereo not shown) [Example 121, [1-(4-methoxyphenoxy)-3-[4-[[(2-oxo-3-propan-2-ylbenzimidazole-1-carbonyl)amino]methyl]piperidin-1-yl]propan-2-yl]carbamate; hydrochloride], the change in vivo at 3 mg/kg was determined as 46.8%. In the case of `COc1cc(N)c(Cl)cc1C(=O)NCC1CCN(CC(NC(=O)O)c2ccc(C)cc2)CC1` (stereo not shown) [Example 24, [2-[4-[[(4-amino-5-chloro-2-methoxybenzoyl)amino]methyl]piperidin-1-yl]-1-(4-methylphenyl)ethyl]carbamate; hydrochloride], the change in vivo at 3 mg/kg is 71.1%. Turning to `COc1cc(N)c(Cl)cc1C(=O)NCC1CCN(CC(COc2ccccc2)OC(=O)N2CCCCC2)CC1` (stereo not shown) [Example 88, [1-[4-[[(4-amino-5-chloro-2-methoxybenzoyl)amino]methyl]piperidin-1-yl]-3-phenoxypropan-2-yl]piperidine-1-carboxylate; hydrochloride], the change in vivo at 3 mg/kg amounted to 44.1%. To `COc1cc(N)c(Cl)cc1C(=O)NCC1CCN(CCC(O)c2ccccc2Cl)CC1` (stereo not shown) [Example 41, 4-amino-5-chloro-N-[[1-[3-(2-chlorophenyl)-3-hydroxypropyl]piperidin-4-yl]methyl]-2-methoxybenzamide; hydrochloride] belongs 24.3%; to `COc1cc(N)c(Cl)cc1C(=O)NCC1CCN(CCC(NC(=O)O)c2ccc(F)cc2)CC1` (stereo not shown) [Example 54, [3-[4-[[(4-amino-5-chloro-2-methoxybenzoyl)amino]methyl]piperidin-1-yl]-1-(4-fluorophenyl)propyl]carbamate; hydrochloride], 89.2%. For `COc1cc(N)c(Cl)cc1C(=O)NCC1CCN(CC(O)COc2ccccc2)CC1` (stereo not shown) [Example 71, 4-amino-5-chloro-N-[[1-(2-hydroxy-3-phenoxypropyl)piperidin-4-yl]methyl]-2-methoxybenzamide; hydrochloride], the change in vivo at 3 mg/kg was 63.7%.
